Measured values: PMC6028563, “Probing Substituents in the 1- and 3-Position: Tetrahydropyrazino-Annelated Water-Soluble Xanthine Derivatives as Multi-Target Drugs With Potent Adenosine Receptor Antagonistic Activity” (Frontiers in Chemistry, 2018)

Assays:
[1] = target: T1, rat A2A AR (Rattus norvegicus, UniProt P30543); experiment: Radioligand binding assay at rat A2A AR (rat brain striatum) vs. [^3H]MSX-2; details: rat (r); for Ki: rat brain striatum, n = 3, read-out: Ki ± SEM, A2A vs. [^3H]MSX-2; for % inhibition of radioligand binding at indicated concentration, A2A vs. [^3H]MSX-2: at 1,000 nM
T1 construct: A2A ARs of rat brain striatal membrane preparations; from tissue; host or cells: rat brain striatum membranes
Procedure, shortened: (§1)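 Affinity values derive from radioligand displacement on membrane preparations: native rat tissue (cortex for A1, striatum for A2A) or CHO cells recombinantly expressing human A1, A2A, A2B or A3 ARs.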

[2] = target: T2, human A2B AR (Homo sapiens, UniProt P29275); experiment: Radioligand binding assay at human A2B AR vs. [^3H]PSB-603; details: for Ki: CHO cell membranes, n = 2 (n = 3 where marked a), read-out: Ki ± SEM, A2B vs. [^3H]PSB-603; for inhibition at 1 µM: at 1,000 nM, read-out: % inhibition of radioligand binding at indicated concentration, A2B vs. [^3H]PSB-603
T2 construct: expressed in transfected cells; host or cells: CHO cells
T2 sequence (P29275 1-332): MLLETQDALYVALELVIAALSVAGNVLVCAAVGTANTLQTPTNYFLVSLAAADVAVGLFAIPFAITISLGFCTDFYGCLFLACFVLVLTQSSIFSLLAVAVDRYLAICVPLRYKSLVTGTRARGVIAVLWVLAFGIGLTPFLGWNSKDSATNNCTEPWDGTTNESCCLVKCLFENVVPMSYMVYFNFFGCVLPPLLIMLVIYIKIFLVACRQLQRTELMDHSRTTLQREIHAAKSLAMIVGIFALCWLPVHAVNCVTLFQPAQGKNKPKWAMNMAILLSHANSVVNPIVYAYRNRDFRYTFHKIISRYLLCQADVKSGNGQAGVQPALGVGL
Procedure, shortened: as §1

[3] = target: T3, rat A1 AR (Rattus norvegicus, UniProt P25099); experiment: Radioligand binding assay at rat A1 AR (rat brain cortex) vs. [^3H]CCPA; details: rat (r); for Ki: rat brain cortex, n = 3
T3 construct: A1 ARs of rat brain cortical membrane; from tissue; host or cells: rat brain cortex membranes
T3 sequence (P25099 1-326): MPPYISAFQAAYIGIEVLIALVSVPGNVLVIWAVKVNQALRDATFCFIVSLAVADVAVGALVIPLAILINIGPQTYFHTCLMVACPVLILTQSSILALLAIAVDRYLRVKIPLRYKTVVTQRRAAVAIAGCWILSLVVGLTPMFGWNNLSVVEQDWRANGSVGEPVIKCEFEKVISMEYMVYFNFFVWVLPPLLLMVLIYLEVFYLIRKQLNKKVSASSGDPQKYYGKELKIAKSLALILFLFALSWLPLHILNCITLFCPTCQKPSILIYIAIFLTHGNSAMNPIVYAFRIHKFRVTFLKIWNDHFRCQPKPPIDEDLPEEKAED
Procedure, shortened: as §1

[4] = target: T4, recombinant human MAO-B (Homo sapiens, UniProt P27338); experiment: Monoamine oxidase assay (Amplex Red), MAO-B; type: biochemical; details: for inhibition at 10 µM: at 10,000 nM (10 μM), read-out: % inhibition at indicated concentration, Human MAO-B; for IC50: n = 3, read-out: IC50 ± SEM, Human MAO-B
T4 construct: purchased Sigma-Aldrich M7441; host or cells: baculovirus-infected insect cells
T4 sequence (P27338 1-520): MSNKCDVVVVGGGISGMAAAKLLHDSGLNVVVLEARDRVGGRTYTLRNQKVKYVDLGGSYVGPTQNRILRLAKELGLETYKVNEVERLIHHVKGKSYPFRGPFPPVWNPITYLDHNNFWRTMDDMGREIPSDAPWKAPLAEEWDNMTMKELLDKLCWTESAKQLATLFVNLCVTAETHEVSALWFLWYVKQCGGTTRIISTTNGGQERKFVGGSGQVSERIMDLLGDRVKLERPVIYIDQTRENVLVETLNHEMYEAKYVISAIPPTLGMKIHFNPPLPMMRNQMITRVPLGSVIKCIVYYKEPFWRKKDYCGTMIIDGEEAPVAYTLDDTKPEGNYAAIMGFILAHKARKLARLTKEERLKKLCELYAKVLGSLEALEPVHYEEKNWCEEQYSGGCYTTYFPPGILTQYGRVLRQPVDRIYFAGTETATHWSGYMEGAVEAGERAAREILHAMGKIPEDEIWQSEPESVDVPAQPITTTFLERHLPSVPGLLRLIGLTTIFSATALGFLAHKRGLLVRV
Procedure, shortened: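 Inhibition was measured with an Amplex Red monoamine oxidase assay, using human MAO-A and MAO-B produced recombinantly in baculovirus-infected insect cells. For rat MAO-B, liver mitochondria-enriched fractions from male Sprague Dawley rats served as enzyme source.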

[5] = target: T5, human A3 AR (Homo sapiens, UniProt P0DMS8); experiment: Radioligand binding assay at human A3 AR vs. [^3H]PSB-11; details: for Ki: CHO cell membranes, n = 2 (n = 3 where marked a), read-out: Ki ± SEM, A3 vs. [^3H]PSB-11; for inhibition at 10 µM: at 10,000 nM, read-out: % inhibition of radioligand binding at indicated concentration, A3 vs. [^3H]PSB-11
T5 construct: expressed in transfected cells; host or cells: CHO cells
T5 sequence (P0DMS8 1-318): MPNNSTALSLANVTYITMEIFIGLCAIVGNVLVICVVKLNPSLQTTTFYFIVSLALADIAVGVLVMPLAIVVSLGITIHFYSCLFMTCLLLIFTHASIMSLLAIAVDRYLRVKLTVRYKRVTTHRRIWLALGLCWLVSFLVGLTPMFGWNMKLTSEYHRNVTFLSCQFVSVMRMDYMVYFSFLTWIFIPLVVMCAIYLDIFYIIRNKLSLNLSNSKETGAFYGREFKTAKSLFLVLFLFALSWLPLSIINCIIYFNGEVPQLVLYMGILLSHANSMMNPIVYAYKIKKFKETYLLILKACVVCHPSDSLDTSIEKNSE
Procedure, shortened: as §1

T1 sequence (P30543 whole entry): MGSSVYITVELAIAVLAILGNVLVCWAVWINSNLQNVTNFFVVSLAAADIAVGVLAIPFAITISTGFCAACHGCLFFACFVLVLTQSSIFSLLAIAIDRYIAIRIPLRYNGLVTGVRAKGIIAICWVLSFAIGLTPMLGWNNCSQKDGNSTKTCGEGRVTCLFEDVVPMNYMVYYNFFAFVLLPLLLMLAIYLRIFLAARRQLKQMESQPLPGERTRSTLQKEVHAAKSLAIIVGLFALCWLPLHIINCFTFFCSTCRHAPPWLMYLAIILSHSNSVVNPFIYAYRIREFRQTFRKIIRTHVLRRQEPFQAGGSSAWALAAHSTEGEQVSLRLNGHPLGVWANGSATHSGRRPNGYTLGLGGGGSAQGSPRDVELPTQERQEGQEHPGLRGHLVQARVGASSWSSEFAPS

Compound | Ki [1] | Ki [2] | inhibition at 1 µM [2] | Ki [3] | inhibition at 10 µM [4] | IC50 [4] | Ki [5] | inhibition at 10 µM [5] | % inhibition of radioligand binding at indicated concentration, A2A vs. [^3H]MSX-2 [1] | inhibition at 1.5 µM ([3]; read-out: % inhibition of radioligand binding at indicated concentration, A1 vs. [^3H]CCPA, at 1,500 nM)
CCn1c(=O)c2c(nc3n2CCN(Cc2cccc(C(F)(F)F)c2F)C3)n(C)c1=O [Compound 14l, 3-ethyl-8-(2-fluoro-3-(trifluoromethyl)benzyl)-1-methyl-6,7,8,9-tetrahydropyrazino[2,1-f]purine-2,4(1H,3H)-dione] | 667 ± 68 nM | > 1000 nM | 8% | 236 ± 57 nM | 65% | < 10000 nM | > 10000 nM | 29% | – | –
CCn1c(=O)c2c(nc3n2CCN(Cc2cc(C(F)(F)F)ccc2Cl)C3)n(C)c1=O [Compound 14m, 8-(2-chloro-5-(trifluoromethyl)benzyl)-3-ethyl-1-methyl-6,7,8,9-tetrahydropyrazino[2,1-f]purine-2,4(1H,3H)-dione] | 592 ± 28 nM | > 1000 nM | 3% | 76.2 ± 9 nM | – | 1430 nM | > 10000 nM | 35% | – | –
CCn1c(=O)c2c(nc3n2CCN(Cc2cc(F)c(F)c(F)c2)C3)n(CC)c1=O [Compound 15r, 1,3-diethyl-8-(3,4,5-trifluorobenzyl)-6,7,8,9-tetrahydropyrazino[2,1-f]purine-2,4(1H,3H)-dione] | > 1000 nM | > 1000 nM | 23% | > 1500 nM | – | 524 ± 26 nM | > 10000 nM | 14% | 36% | 25%
CCn1c(=O)n(C)c(=O)c2c1nc1n2CCN(Cc2cc(Cl)cc(Cl)c2)C1 [Compound 16b, 8-(3,5-dichlorobenzyl)-1-ethyl-3-methyl-6,7,8,9-tetrahydropyrazino[2,1-f]purine-2,4(1H,3H)-dione] | 1490 nM | > 1000 nM | 5% | 49.3 ± 8 nM | – | 136 ± 5 nM | > 10000 nM | 23% | – | –
CCn1c(=O)c2c(nc3n2CCN(Cc2ccc(F)c(Br)c2)C3)n(CC)c1=O [Compound 15k, 8-(3-bromo-4-fluorobenzyl)-1,3-diethyl-6,7,8,9-tetrahydropyrazino[2,1-f]purine-2,4(1H,3H)-dione] | > 1000 nM | > 1000 nM | 34% | 270 ± 60 nM | 63% | < 10000 nM | 7190 nM | – | 30% | –
CCn1c(=O)c2c(nc3n2CCN(Cc2cccc(C(F)(F)F)c2)C3)n(CC)c1=O [Compound 15g, 1,3-diethyl-8-(3-(trifluoromethyl)benzyl)-6,7,8,9-tetrahydropyrazino[2,1-f]purine-2,4(1H,3H)-dione] | 1030 nM | > 1000 nM | 27% | 30 ± 5.7 nM | 10% | > 10000 nM | > 10000 nM | 36% | – | –
CCn1c(=O)c2c(nc3n2CCN(Cc2ccccc2Br)C3)n(C)c1=O [Compound 14a, 8-(2-bromobenzyl)-3-ethyl-1-methyl-6,7,8,9-tetrahydropyrazino[2,1-f]purine-2,4(1H,3H)-dione] | 408 ± 90 nM | > 1000 nM | 18% | 123 ± 34 nM | 37% | > 10000 nM | > 10000 nM | 36% | – | –
